pIC50: −log10 of the molar value. The source made the active and inactive calls. No cut-off for these calls is given here.
Tested on: not listed separately
Assay: Metal chelating activity of the compound assessed as compound-Fe2+ complex formation by measuring maximum absorption wavelength range by UV-vis spectroscopy (reference value: 212 nm)
Format: physicochemical
Conditions: not given

Compound | Activity
O=C(CCc1c[nH]c2ccccc12)NCCC1CCN(Cc2ccccc2)CC1 | 216 nm

Tested on: not listed separately
Assay: Metal chelating activity of the compound assessed as compound-Zn2+ complex formation by UV-vis spectroscopy by measuring maximum absorption wavelength range by UV-vis spectroscopy (reference value: 212 nm)
Format: physicochemical
Conditions: not given

Compound | Activity
O=C(CCc1c[nH]c2ccccc12)NCCC1CCN(Cc2ccccc2)CC1 | 214 nm

Molecular target: Cholinesterase (Equus caballus, UniProt P81908)
Sequence (P81908 whole entry): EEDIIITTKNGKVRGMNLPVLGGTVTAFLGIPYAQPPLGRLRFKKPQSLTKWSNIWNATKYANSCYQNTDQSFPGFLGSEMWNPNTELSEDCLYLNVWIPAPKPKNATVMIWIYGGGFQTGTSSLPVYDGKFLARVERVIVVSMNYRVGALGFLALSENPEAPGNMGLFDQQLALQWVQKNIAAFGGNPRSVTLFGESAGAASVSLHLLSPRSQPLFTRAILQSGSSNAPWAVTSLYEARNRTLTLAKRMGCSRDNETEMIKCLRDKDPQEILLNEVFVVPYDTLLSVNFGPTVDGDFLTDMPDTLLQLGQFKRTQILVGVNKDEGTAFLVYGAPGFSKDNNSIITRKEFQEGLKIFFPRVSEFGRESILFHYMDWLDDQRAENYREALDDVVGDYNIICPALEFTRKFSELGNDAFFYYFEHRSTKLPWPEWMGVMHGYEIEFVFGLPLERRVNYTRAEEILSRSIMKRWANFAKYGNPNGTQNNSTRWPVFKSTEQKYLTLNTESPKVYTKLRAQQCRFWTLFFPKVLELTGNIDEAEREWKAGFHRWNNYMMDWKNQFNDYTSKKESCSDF
Assay: not given
Conditions: not given

Compound | pIC50
Cc1cccc(CN2CCC(CC(=O)NCCc3c[nH]c4ccccc34)CC2)c1 | 6.02
COc1ccc2[nH]cc(CCNC(=O)C3CCN(Cc4ccccc4C)CC3)c2c1 | 5.49
COc1ccc2[nH]cc(CCNC(=O)CC3CCN(Cc4cccc(Cl)c4)CC3)c2c1 | 5.36
COc1ccc2[nH]cc(CCNC(=O)CC3CCN(Cc4ccc(Cl)cc4)CC3)c2c1 | 5.19
COc1ccc2[nH]cc(CCNC(=O)C3CCN(Cc4ccccc4)CC3)c2c1 | 5.09
O=C(CC1CCN(Cc2ccccc2)CC1)NCCc1c[nH]c2ccccc12 | 5.96
COc1ccc2[nH]cc(CCNC(=O)CC3CCN(Cc4cccc(C)c4)CC3)c2c1 | 5.36
COc1ccc2[nH]cc(CCNC(=O)CC3CCN(Cc4ccc(C)cc4)CC3)c2c1 | 5.83
O=C(NCCc1c[nH]c2ccccc12)C1CCN(Cc2ccccc2)CC1 | 5.48
Cc1ccc(CN2CCC(CC(=O)NCCc3c[nH]c4ccccc34)CC2)cc1 | 5.89
COc1ccc2[nH]cc(CCNC(=O)CC3CCN(Cc4ccccc4C)CC3)c2c1 | 5.89
O=C(CCc1c[nH]c2ccccc12)NCCC1CCN(Cc2ccccc2)CC1 | 7.14

Molecular target: T1, Cholinesterase (Homo sapiens, UniProt P06276)
T1 sequence (P06276 whole entry): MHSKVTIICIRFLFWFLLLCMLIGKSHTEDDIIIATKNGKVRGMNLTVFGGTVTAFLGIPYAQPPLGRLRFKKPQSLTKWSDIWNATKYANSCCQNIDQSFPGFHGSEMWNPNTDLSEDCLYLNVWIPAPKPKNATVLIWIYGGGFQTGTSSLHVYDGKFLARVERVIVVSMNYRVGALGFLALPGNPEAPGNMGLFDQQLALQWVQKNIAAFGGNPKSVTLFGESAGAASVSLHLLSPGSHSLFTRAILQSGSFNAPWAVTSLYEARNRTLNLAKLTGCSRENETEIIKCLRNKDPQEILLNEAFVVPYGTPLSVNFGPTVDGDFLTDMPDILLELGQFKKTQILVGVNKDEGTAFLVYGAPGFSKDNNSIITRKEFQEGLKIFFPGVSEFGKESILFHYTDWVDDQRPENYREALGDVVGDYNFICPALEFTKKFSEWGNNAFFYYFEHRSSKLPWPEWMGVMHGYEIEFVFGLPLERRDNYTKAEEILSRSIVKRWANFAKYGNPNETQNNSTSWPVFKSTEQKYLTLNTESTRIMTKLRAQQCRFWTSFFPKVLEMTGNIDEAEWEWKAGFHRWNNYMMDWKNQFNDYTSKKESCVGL
Assay: Competitive inhibition of BCHE (unknown origin) using […] as substrate by Line weaver-Burk reciprocal plot analysis
Conditions: not given

Compound | inhibition
O=C(CCc1c[nH]c2ccccc12)NCCC1CCN(Cc2ccccc2)CC1 | Active

Molecular target: T2, Acetylcholinesterase (Homo sapiens, UniProt P22303)
T2 sequence (P22303 whole entry): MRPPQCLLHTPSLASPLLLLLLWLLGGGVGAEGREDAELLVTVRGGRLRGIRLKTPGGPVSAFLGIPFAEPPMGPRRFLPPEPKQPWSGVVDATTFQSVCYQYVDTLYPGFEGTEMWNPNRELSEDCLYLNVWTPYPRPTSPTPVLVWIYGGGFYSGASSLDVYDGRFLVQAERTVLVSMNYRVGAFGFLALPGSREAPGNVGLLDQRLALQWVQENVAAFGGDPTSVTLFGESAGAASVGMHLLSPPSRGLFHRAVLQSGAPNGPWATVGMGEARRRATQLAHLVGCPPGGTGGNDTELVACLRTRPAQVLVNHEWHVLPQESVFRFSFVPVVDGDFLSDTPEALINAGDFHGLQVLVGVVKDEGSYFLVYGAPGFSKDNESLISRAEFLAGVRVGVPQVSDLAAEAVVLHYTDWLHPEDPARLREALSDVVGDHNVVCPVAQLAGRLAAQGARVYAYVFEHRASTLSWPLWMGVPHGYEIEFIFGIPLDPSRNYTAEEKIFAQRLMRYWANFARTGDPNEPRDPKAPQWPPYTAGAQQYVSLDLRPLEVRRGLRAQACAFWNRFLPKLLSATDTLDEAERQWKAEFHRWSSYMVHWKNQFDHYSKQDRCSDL
Assay: not given
Conditions: not given

Compound | pIC50
Cc1cccc(CN2CCC(CC(=O)NCCc3c[nH]c4ccccc34)CC2)c1 | 5.33
COc1ccc2[nH]cc(CCNC(=O)C3CCN(Cc4ccccc4C)CC3)c2c1 | 5.13
COc1ccc2[nH]cc(CCNC(=O)C3CCN(Cc4ccccc4)CC3)c2c1 | 4.91
O=C(CC1CCN(Cc2ccccc2)CC1)NCCc1c[nH]c2ccccc12 | 5.42
COc1ccc2[nH]cc(CCNC(=O)CC3CCN(Cc4cccc(C)c4)CC3)c2c1 | 4.87
COc1ccc2[nH]cc(CCNC(=O)CC3CCN(Cc4ccc(C)cc4)CC3)c2c1 | 5.03
O=C(NCCc1c[nH]c2ccccc12)C1CCN(Cc2ccccc2)CC1 | 5.11
Cc1ccc(CN2CCC(CC(=O)NCCc3c[nH]c4ccccc34)CC2)cc1 | 5.31
COc1ccc2[nH]cc(CCNC(=O)CC3CCN(Cc4ccccc4C)CC3)c2c1 | 5.44
O=C(CCc1c[nH]c2ccccc12)NCCC1CCN(Cc2ccccc2)CC1 | 6.56

Tested on: not listed separately
Assay: Cytotoxicity against rat PC12 cells assessed as reduction in cell viability at 1 to 50 uM measured after 24 hrs by MTT assay
Format: cell-based
Conditions: pc-12, 24 h

Compound | Activity
COc1ccc2[nH]cc(CCNC(=O)C3CCN(Cc4ccccc4C)CC3)c2c1 | Non-toxic
COc1ccc2[nH]cc(CCNC(=O)CC3CCN(Cc4ccccc4C)CC3)c2c1 | Non-toxic
O=C(CCc1c[nH]c2ccccc12)NCCC1CCN(Cc2ccccc2)CC1 | Non-toxic

Tested on: PC-12
Assay: Neuroprotective activity against H2O2-induced damage in rat PC12 cells assessed as cell viability at 1 to 10 uM preincubated for 2 hrs followed by H2O2 addition for 24 hrs by MTT assay
Format: functional, cell-based
Conditions: not given

Compound | Activity
COc1ccc2[nH]cc(CCNC(=O)C3CCN(Cc4ccccc4C)CC3)c2c1 | Active
COc1ccc2[nH]cc(CCNC(=O)CC3CCN(Cc4ccccc4C)CC3)c2c1 | Active
O=C(CCc1c[nH]c2ccccc12)NCCC1CCN(Cc2ccccc2)CC1 | Active

Tested on: not listed separately
Assay: Metal chelating activity of the compound assessed as compound-Fe3+ complex formation by UV-vis spectroscopy by measuring maximum absorption wavelength range by UV-vis spectroscopy (reference value: 212 nm)
Format: physicochemical
Conditions: not given

Compound | Activity
O=C(CCc1c[nH]c2ccccc12)NCCC1CCN(Cc2ccccc2)CC1 | 216 nm

Molecular target: T1, Cholinesterase
Assay: not given
Conditions: not given

Compound | pIC50
Cc1cccc(CN2CCC(CC(=O)NCCc3c[nH]c4ccccc34)CC2)c1 | 6.07
COc1ccc2[nH]cc(CCNC(=O)C3CCN(Cc4ccccc4C)CC3)c2c1 | 5.52
COc1ccc2[nH]cc(CCNC(=O)C3CCN(Cc4ccccc4)CC3)c2c1 | 5.66
O=C(CC1CCN(Cc2ccccc2)CC1)NCCc1c[nH]c2ccccc12 | 6.02
COc1ccc2[nH]cc(CCNC(=O)CC3CCN(Cc4cccc(C)c4)CC3)c2c1 | 5.85
COc1ccc2[nH]cc(CCNC(=O)CC3CCN(Cc4ccc(C)cc4)CC3)c2c1 | 5.97
O=C(NCCc1c[nH]c2ccccc12)C1CCN(Cc2ccccc2)CC1 | 5.70
Cc1ccc(CN2CCC(CC(=O)NCCc3c[nH]c4ccccc34)CC2)cc1 | 6.54
COc1ccc2[nH]cc(CCNC(=O)CC3CCN(Cc4ccccc4C)CC3)c2c1 | 5.99
O=C(CCc1c[nH]c2ccccc12)NCCC1CCN(Cc2ccccc2)CC1 | 7.25

Tested on: not listed separately
Assay: Metal chelating activity of the compound assessed as compound-Cu2+ complex formation by measuring bathochromic shift by UV-vis spectroscopy
Format: physicochemical
Conditions: not given

Compound | Activity
O=C(CCc1c[nH]c2ccccc12)NCCC1CCN(Cc2ccccc2)CC1 | 219 nm

Molecular target: T2, Acetylcholinesterase
Assay: Mixed-type inhibition of ACHE (unknown origin) using acetylcholine iodide as substrate by Line weaver-Burk reciprocal plot analysis
Conditions: not given

Compound | inhibition
O=C(CCc1c[nH]c2ccccc12)NCCC1CCN(Cc2ccccc2)CC1 | Active

Tested on: not listed separately
Assay: in vitro
Conditions: PAMPA

Compound | Papp at 50 ug/ml
COc1ccc2[nH]cc(CCNC(=O)C3CCN(Cc4ccccc4C)CC3)c2c1 | 9.37 ×10⁻⁶ cm/s
O=C(CC1CCN(Cc2ccccc2)CC1)NCCc1c[nH]c2ccccc12 | 7.4 ×10⁻⁶ cm/s
COc1ccc2[nH]cc(CCNC(=O)CC3CCN(Cc4ccccc4C)CC3)c2c1 | 10.9 ×10⁻⁶ cm/s
O=C(CCc1c[nH]c2ccccc12)NCCC1CCN(Cc2ccccc2)CC1 | 6.98 ×10⁻⁶ cm/s

Molecular target: Acetylcholinesterase (Electrophorus electricus, UniProt O42275)
Sequence (O42275 whole entry): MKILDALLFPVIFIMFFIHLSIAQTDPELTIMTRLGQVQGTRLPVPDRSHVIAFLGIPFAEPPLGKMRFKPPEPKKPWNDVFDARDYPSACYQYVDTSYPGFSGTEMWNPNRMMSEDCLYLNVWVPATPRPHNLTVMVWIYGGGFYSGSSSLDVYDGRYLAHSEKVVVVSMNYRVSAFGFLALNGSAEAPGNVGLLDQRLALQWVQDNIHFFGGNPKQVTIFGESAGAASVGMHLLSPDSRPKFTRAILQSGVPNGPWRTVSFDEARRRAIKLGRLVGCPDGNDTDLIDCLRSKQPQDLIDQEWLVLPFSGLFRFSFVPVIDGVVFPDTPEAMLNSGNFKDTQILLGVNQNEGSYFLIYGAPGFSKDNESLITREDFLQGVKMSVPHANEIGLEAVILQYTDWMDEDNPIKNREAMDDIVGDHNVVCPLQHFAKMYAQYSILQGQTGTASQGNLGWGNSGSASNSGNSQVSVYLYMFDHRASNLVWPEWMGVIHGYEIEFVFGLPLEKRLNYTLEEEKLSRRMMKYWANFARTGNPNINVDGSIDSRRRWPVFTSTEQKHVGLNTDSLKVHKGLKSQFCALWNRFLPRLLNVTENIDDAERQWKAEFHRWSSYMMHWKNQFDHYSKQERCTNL
Assay: not given
Conditions: not given

Compound | pIC50
Cc1cccc(CN2CCC(CC(=O)NCCc3c[nH]c4ccccc34)CC2)c1 | 5.79
COc1ccc2[nH]cc(CCNC(=O)C3CCN(Cc4ccccc4C)CC3)c2c1 | 5.35
COc1ccc2[nH]cc(CCNC(=O)CC3CCN(Cc4cccc(Cl)c4)CC3)c2c1 | 5.02
COc1ccc2[nH]cc(CCNC(=O)CC3CCN(Cc4ccc(Cl)cc4)CC3)c2c1 | 4.69
COc1ccc2[nH]cc(CCNC(=O)C3CCN(Cc4ccccc4)CC3)c2c1 | 5.03
O=C(CC1CCN(Cc2ccccc2)CC1)NCCc1c[nH]c2ccccc12 | 5.68
COc1ccc2[nH]cc(CCNC(=O)CC3CCN(Cc4cccc(C)c4)CC3)c2c1 | 5.02
COc1ccc2[nH]cc(CCNC(=O)CC3CCN(Cc4ccc(C)cc4)CC3)c2c1 | 5.28
O=C(NCCc1c[nH]c2ccccc12)C1CCN(Cc2ccccc2)CC1 | 5.26
Cc1ccc(CN2CCC(CC(=O)NCCc3c[nH]c4ccccc34)CC2)cc1 | 5.71
COc1ccc2[nH]cc(CCNC(=O)CC3CCN(Cc4ccccc4C)CC3)c2c1 | 5.66
O=C(CCc1c[nH]c2ccccc12)NCCC1CCN(Cc2ccccc2)CC1 | 6.71
